Values quoted from earlier work as cited in patent US20130237556A1, “BERBERINE ALKALOID AS A MEDICAMENT FOR PREVENTION AND TREATMENT OF NEURAL DISEASE” (HONG KONG BAPTIST UNIVERSITY, priority 2012, published 2013).

System: activated microglia
Settings: ibuprofen-treated animals; cited from earlier work

CC(C)Cc1ccc(C(C)C(=O)O)cc1 (stereo not shown) [ibuprofen]
decrease in activated microglia: 57%
